Data from PMC6768106, “The crystal structure of AcrR from Mycobacterium tuberculosis reveals a one‐component transcriptional regulation mechanism” (FEBS Open Bio, 2019).

Target: AcrR (Mycobacterium tuberculosis, UniProt O07229)
Sequence (O07229 entry or part of it): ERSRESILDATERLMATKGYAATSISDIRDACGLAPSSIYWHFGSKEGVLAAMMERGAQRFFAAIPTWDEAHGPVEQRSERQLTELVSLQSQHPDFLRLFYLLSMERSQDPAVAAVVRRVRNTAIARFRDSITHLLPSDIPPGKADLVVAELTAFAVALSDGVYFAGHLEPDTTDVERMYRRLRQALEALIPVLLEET

Question: How did the “STD-NMR; also EMSA (promoter DNA release) and CD titration” value turn out when `CCCCCCCCCCCCCCCC(=O)O` [palmitate] was run?
Answer: The value was “which reveals the binding between AcrR and palmitate”.
